The values that follow come from ChEMBL document CHEMBL1125622 (J Med Chem, 1991).

Data set [1] has as its target T1, Dopamine beta-hydroxylase (Bos taurus) (UniProt P15101).
T1 sequence (whole entry): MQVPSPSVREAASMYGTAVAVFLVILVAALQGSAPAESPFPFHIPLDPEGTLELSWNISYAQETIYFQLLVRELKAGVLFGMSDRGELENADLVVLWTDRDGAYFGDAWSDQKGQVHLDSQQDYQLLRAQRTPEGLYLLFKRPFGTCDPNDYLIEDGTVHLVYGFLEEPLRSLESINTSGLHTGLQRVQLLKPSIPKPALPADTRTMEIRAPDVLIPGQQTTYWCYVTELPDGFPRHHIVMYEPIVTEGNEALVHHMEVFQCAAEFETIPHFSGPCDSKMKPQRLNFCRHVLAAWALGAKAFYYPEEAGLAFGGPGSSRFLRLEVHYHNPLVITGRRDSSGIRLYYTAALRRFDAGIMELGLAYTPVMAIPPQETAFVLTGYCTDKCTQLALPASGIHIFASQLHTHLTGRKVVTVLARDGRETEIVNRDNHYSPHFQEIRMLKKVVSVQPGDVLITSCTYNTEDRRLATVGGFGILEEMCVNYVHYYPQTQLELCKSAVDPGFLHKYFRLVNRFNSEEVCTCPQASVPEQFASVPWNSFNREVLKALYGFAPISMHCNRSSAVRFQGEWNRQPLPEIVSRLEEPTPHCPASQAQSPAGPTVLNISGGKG
The experiment in a line: Kinetic parameter kcat was measured for dopamine beta-monooxygenase.

For data set [2], the species on record is Rattus norvegicus. The experiment in a line: The ability to inhibit dopamine uptake was measured in rat brain striatal synaptosomes. It is filed as functional.
Data set [3] addresses T1, Dopamine beta-hydroxylase (Bos taurus). Kind of data set: Kcat/Km value of the compound. More on the design: unit not given here.
Substrate in data set [4]: C[C@H](N)CSc1ccccc1
Kind of data set: (§1) Kinetic parameter Km was measured for dopamine beta-monooxygenase.

Substrate in data set [5]: C[C@@H](N)CSc1ccccc1
Described as §1.

As a reminder, the IC50 is the midpoint of a concentration-inhibition curve. `C[C@H](N)CSc1ccccc1` displayed a k cat in data set [1] of 37 s⁻¹. In addition, the IC50 in data set [2] stood at 6.5 µM. Moreover, the Ratio in data set [3] turned out to be 4800.
The molecule `NCCc1ccc(O)cc1` came in with a k cat in data set [1] of 121 s⁻¹. For the same molecule, the Ratio in data set [3] was determined as 60000.
For `NCCCc1ccccc1` the same measures were 17 s⁻¹ and 800.
`C[C@@H](N)CSc1ccccc1` had a k cat in data set [1] of 13 s⁻¹. Moreover, the Ratio in data set [3] was determined as 700.

B1: Dopamine beta-hydroxylase (Bos taurus), P15101 (protein)
chain: MQVPSPSVREAASMYGTAVAVFLVILVAALQGSAPAESPFPFHIPLDPEGTLELSWNISYAQETIYFQLLVRELKAGVLFGMSDRGELENADLVVLWTDRDGAYFGDAWSDQKGQVHLDSQQDYQLLRAQRTPEGLYLLFKRPFGTCDPNDYLIEDGTVHLVYGFLEEPLRSLESINTSGLHTGLQRVQLLKPSIPKPALPADTRTMEIRAPDVLIPGQQTTYWCYVTELPDGFPRHHIVMYEPIVTEGNEALVHHMEVFQCAAEFETIPHFSGPCDSKMKPQRLNFCRHVLAAWALGAKAFYYPEEAGLAFGGPGSSRFLRLEVHYHNPLVITGRRDSSGIRLYYTAALRRFDAGIMELGLAYTPVMAIPPQETAFVLTGYCTDKCTQLALPASGIHIFASQLHTHLTGRKVVTVLARDGRETEIVNRDNHYSPHFQEIRMLKKVVSVQPGDVLITSCTYNTEDRRLATVGGFGILEEMCVNYVHYYPQTQLELCKSAVDPGFLHKYFRLVNRFNSEEVCTCPQASVPEQFASVPWNSFNREVLKALYGFAPISMHCNRSSAVRFQGEWNRQPLPEIVSRLEEPTPHCPASQAQSPAGPTVLNISGGKG
In general, Km refers to the concentration of substrate that gives half-maximal velocity. For the molecule B1, the Km in data set [4] turned out to be 7.7 mM; in data set [5] it was 19 mM.
